What all share (type): binding
In one test the target is T1, JAK3 (Homo sapiens, UniProt P52333).
T1 construct: endogenous in cells; host or cells: Molt4 (ATCC CRL-1582) and Ramos (ATCC CRL-1596) cells; mixed lysate 1:2
T1 sequence (P52333 1-1124): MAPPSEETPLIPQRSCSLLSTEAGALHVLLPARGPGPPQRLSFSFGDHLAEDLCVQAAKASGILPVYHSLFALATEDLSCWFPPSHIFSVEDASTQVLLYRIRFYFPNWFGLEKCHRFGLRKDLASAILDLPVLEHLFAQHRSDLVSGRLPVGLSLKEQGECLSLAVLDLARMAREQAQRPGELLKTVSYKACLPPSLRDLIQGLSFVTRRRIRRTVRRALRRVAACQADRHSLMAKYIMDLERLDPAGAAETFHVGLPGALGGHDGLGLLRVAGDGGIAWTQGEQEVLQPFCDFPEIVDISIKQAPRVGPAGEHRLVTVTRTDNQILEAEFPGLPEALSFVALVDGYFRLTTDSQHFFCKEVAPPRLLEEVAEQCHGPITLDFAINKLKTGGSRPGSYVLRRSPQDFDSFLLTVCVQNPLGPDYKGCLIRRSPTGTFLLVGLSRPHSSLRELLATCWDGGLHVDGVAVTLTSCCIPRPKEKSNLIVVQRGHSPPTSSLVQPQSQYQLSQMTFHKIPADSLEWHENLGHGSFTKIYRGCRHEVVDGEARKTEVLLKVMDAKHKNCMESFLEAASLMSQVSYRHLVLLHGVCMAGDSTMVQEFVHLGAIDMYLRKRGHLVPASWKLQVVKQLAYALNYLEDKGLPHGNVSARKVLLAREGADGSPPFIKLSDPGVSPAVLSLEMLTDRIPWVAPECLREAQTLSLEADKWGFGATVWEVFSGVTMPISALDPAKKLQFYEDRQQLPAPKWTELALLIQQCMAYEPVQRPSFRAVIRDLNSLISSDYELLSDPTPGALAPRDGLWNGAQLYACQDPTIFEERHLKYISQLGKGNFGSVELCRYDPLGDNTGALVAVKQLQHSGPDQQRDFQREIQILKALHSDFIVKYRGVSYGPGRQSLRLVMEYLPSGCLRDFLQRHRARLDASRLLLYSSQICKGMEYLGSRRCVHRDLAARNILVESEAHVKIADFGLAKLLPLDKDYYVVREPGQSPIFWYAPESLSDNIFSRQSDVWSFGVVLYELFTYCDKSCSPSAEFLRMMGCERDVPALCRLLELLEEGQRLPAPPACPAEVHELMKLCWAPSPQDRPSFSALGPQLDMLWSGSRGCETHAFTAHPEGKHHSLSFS
Description: Kinobeads assay with immunodetection, JAK3. To be noted: for IC50: Kinobeads assay, mixed Molt4/Ramos lysate, read-out: Inhibition values (IC50) JAK3. An outline of the steps: (§1)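 Lysates of Molt4 and Ramos cells, combined 1:2 and diluted to 10 mg/mL in Tris pH 7.4 buffer with 0.8% NP40, are incubated for 3 h in the cold with compound and the affinity matrix. Beads are washed, eluted in SDS buffer, and kinases are quantified by infrared immunodetection to give IC50s.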

The next test deals with T2, JAK2 (Homo sapiens, UniProt O60674).
T2 construct: endogenous in cells; host or cells: Molt4 (ATCC CRL-1582) and Ramos (ATCC CRL-1596) cells; mixed lysate 1:2
The test can be described thus: Kinobeads assay with immunodetection, JAK2. To be noted: mixed Molt4/Ramos lysate, read-out: Inhibition values (IC50) JAK2. In a few lines:
as §1

The target of the next test is T3, JAK1 (Homo sapiens, UniProt P23458).
T3 construct: endogenous in cells; host or cells: Molt4 (ATCC CRL-1582) and Ramos (ATCC CRL-1596) cells; mixed lysate 1:2
The test can be described thus: Kinobeads assay with immunodetection, JAK1. To be noted: for IC50: Kinobeads assay, mixed Molt4/Ramos lysate, read-out: Inhibition values (IC50) JAK1. An outline of the steps: as §1

The next test addresses T4, TYK2 (Homo sapiens, UniProt P29597).
T4 construct: endogenous in cells; host or cells: Molt4 (ATCC CRL-1582) and Ramos (ATCC CRL-1596) cells; mixed lysate 1:2
Description: Kinobeads assay with immunodetection, TYK2. The settings on record: for IC50: Kinobeads assay, mixed Molt4/Ramos lysate, read-out: Inhibition values (IC50) Tyk2. An outline of the steps:
as §1

From US20150005281A1, “PYRIMIDINE-2,4-DIAMINE DERIVATIVES AS KINASE INHIBITORS” (Cellzome Limited, priority 2011, published 2015) come the findings set out here.

A word on the IC50: it is the concentration at which inhibition is half-maximal.

SMILES strings stand for the structures.

T3 sequence (P23458 whole entry): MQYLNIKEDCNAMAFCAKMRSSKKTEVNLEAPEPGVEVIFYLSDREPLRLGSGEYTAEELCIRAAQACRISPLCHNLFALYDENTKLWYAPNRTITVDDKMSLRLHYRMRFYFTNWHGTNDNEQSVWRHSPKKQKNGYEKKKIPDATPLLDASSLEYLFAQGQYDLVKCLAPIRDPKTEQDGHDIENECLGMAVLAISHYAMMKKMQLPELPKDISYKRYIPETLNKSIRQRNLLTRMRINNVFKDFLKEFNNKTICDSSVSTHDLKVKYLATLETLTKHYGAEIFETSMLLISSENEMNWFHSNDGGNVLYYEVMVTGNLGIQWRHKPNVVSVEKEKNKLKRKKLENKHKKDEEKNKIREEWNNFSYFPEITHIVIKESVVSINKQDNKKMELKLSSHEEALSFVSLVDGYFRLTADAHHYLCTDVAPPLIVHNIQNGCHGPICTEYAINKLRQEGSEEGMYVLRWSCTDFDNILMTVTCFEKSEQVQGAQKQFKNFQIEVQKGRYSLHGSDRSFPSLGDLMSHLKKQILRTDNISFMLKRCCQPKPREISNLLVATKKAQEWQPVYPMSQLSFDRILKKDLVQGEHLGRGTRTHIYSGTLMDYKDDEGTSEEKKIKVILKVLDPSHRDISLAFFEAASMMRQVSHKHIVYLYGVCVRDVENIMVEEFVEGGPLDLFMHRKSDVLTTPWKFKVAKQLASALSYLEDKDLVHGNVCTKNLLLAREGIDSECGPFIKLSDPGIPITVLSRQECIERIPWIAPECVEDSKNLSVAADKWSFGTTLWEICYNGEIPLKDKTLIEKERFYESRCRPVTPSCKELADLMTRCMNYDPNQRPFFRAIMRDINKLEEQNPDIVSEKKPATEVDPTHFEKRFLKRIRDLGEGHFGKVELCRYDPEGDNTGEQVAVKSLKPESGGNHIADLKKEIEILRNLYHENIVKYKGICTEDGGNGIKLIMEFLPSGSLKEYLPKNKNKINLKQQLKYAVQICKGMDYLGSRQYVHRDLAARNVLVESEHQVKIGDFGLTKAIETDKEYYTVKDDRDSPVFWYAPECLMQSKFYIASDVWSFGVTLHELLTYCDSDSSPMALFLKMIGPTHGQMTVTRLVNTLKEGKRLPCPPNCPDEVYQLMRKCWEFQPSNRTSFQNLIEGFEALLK
T2 sequence (O60674 whole entry): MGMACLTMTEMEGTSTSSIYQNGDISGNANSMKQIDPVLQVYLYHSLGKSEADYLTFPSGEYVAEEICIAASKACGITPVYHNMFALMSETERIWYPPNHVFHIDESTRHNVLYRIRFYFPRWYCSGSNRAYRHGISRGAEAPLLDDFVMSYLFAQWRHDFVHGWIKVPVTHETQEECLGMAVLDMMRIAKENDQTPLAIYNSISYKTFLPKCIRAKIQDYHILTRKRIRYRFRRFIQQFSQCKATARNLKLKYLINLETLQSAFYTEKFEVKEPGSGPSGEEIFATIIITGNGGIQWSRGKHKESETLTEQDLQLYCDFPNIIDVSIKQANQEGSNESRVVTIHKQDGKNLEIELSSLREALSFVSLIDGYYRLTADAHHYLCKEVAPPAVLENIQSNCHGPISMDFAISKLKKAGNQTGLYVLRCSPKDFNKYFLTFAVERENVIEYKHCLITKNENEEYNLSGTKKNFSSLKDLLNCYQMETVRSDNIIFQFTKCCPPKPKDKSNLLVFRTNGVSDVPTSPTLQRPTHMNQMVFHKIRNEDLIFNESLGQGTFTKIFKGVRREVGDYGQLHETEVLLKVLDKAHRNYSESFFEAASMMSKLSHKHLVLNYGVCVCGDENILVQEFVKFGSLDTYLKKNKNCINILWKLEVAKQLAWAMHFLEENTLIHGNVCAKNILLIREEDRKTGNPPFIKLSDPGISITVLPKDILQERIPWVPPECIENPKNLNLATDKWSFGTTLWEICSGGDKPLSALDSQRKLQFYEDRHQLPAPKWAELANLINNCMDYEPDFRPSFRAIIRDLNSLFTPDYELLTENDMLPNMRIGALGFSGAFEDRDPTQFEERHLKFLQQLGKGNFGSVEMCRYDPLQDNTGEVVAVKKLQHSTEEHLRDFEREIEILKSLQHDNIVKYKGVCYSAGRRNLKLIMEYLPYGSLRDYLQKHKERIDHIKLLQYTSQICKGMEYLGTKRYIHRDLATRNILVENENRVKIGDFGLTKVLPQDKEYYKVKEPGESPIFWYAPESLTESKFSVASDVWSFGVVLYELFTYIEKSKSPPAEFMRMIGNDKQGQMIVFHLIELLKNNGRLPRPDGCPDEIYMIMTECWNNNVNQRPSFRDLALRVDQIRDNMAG
T4 sequence (P29597 whole entry): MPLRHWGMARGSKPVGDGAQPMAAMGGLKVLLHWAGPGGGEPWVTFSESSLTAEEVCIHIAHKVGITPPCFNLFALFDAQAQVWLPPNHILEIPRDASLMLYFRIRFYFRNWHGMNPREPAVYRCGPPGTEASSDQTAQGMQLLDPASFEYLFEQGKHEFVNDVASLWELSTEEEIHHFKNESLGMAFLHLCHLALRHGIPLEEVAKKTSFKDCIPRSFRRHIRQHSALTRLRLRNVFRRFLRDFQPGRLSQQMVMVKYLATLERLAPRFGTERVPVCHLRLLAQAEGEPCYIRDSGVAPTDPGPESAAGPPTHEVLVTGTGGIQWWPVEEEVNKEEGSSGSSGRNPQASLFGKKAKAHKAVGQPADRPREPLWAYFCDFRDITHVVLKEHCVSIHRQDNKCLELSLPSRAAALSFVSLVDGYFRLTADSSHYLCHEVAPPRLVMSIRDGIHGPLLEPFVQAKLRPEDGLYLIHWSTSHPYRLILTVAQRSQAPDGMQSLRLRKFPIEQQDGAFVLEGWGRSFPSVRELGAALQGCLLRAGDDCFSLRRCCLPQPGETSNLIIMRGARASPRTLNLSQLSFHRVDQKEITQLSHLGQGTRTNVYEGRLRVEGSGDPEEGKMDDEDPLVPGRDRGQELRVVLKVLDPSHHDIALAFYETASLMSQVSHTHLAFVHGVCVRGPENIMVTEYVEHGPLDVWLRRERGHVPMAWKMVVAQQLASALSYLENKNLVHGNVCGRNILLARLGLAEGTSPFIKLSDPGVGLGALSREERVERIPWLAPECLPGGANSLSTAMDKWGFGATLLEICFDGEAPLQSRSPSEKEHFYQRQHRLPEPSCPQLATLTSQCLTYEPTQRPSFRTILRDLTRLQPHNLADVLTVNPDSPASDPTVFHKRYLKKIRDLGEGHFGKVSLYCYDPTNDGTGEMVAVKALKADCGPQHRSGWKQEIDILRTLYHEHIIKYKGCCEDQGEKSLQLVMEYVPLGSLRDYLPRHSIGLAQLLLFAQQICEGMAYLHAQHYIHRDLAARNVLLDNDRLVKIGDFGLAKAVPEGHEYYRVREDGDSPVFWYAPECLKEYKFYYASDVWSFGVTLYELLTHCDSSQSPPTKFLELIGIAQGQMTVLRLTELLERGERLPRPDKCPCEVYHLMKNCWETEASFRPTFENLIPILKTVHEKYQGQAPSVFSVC

In the case of `Cn1cc(Nc2ncc(F)c(NC[C@H]3CCCN3C(=O)CCC#N)n2)cn1` [Example 114, (R)-4-(2-(((5-fluoro-2-((1-methyl-1H-pyrazol-4-yl)amino)pyrimidin-4-yl)amino)methyl)pyrrolidin-1-yl)-4-oxobutanenitrile], the IC50 on JAK3 was 0.1 to 1 µM; at JAK2, 1 to 10 µM; at JAK1, less than 0.1 µM; at TYK2, less than 0.1 µM. The “Selectivity ratio over JAK2, Tyk2” value at TYK2 is given as “Tyk2 = 103”.
As to `Cn1cc(Nc2ncc(Cl)c(NC[C@H]3CCCN3C3CCS(=O)(=O)C3)n2)cn1` (stereo partly drawn) [Example 115, 3-((R)-2-(((5-chloro-2-((1-methyl-1H-pyrazol-4-yl)amino)pyrimidin-4-yl)amino)methyl)pyrrolidin-1-yl)tetrahydrothiophene 1,1-dioxide], the IC50 is less than 0.1 µM on JAK3, 0.1 to 1 µM at JAK2, less than 0.1 µM on JAK1 and less than 0.1 µM at TYK2. Also, on TYK2, the “Selectivity ratio over JAK2, Tyk2” value is on record as “Tyk2 = 68”.
On to `Cc1cnc(Nc2cnn(CC(F)F)c2)nc1NC[C@H]1CCCN1CCS(C)(=O)=O` [Example 116, (R)—N^2-(1-(2,2-difluoroethyl)-1H-pyrazol-4-yl)-5-methyl-N^4-((1-(2-(methylsulfonyl)ethyl)pyrrolidin-2-yl)methyl)pyrimidine-2,4-diamine], for which the concentration for half-maximal inhibition (IC50) on JAK3 was less than 0.1 µM; on JAK2 it was 1 to 10 µM; at JAK1, less than 0.1 µM; at TYK2, less than 0.1 µM. At JAK1, the “Selectivity ratio over JAK2, JAK1” value is “JAK1 = 70”.
With `Cc1cnc(Nc2cnn(CC(F)F)c2)nc1NC[C@H]1CCCN1CCC#N` [Example 117, (R)-3-(2-(((2-((1-(2,2-difluoroethyl)-1H-pyrazol-4-yl)amino)-5-methylpyrimidin-4-yl)amino)methyl)pyrrolidin-1-yl)propanenitrile], the IC50 on JAK3 was less than 0.1 µM; on JAK2, 1 to 10 µM; at JAK1, less than 0.1 µM; at TYK2, less than 0.1 µM. Further, the “Selectivity ratio over JAK2, Tyk2” value at TYK2 is listed as “Tyk2 = 140”.
As to `Cc1cnc(Nc2cnn(CC(F)F)c2)nc1NC[C@H]1CCCN1C(=O)CC#N` [Example 118, (R)-3-(2-(((2-((1-(2,2-difluoroethyl)-1H-pyrazol-4-yl)amino)-5-methylpyrimidin-4-yl)amino)methyl)pyrrolidin-1-yl)-3-oxopropanenitrile], the half-maximal inhibitory concentration (IC50) was 0.1 to 1 µM on JAK3, 0.1 to 1 µM on JAK2, less than 0.1 µM at JAK1 and less than 0.1 µM at TYK2. Further, at JAK1, the “Selectivity ratio over JAK2, JAK1” value is given as “JAK1 = 69”.
Regarding `Cn1cc(Nc2ncc(Cl)c(NC[C@@H]3CCCN3CCCS(C)(=O)=O)n2)cn1` [Example 119, (S)-5-chloro-N^2-(1-methyl-1H-pyrazol-4-yl)-N^4-((1-(3-(methylsulfonyl)propyl)pyrrolidin-2-yl)methyl)pyrimidine-2,4-diamine], the IC50 on JAK3 is 1 to 10 µM; at JAK2, 1 to 10 µM; at JAK1 it was less than 0.1 µM; at TYK2 it was 0.1 to 1 µM. Further, the “Selectivity ratio over JAK2, JAK1” value at JAK1 was “JAK1 = 68”.
With `Cc1cnc(Nc2cnn(CC(F)F)c2)nc1NC[C@@H]1C[C@H](F)CN1CCS(C)(=O)=O` [Example 120, N^2-(1-(2,2-difluoroethyl)-1H-pyrazol-4-yl)-N^4-(((2S,4S)-4-fluoro-1-(2-(methylsulfonyl)ethyl)pyrrolidin-2-yl)methyl)-5-methylpyrimidine-2,4-diamine], the IC50 was 1 to 10 µM on JAK3, 1 to 10 µM on JAK2, less than 0.1 µM at JAK1 and 0.1 to 1 µM on TYK2. The “Selectivity ratio over JAK2, JAK1” value on JAK1 is “JAK1 = 81”.
`Cc1cnc(Nc2cnn(CC(F)F)c2)nc1NC[C@@H]1C[C@H](F)CN1CCC#N` [Example 121, 3-((2S,4S)-2-(((2-((1-(2,2-difluoroethyl)-1H-pyrazol-4-yl)amino)-5-methylpyrimidin-4-yl)amino)methyl)-4-fluoropyrrolidin-1-yl)propanenitrile]: the IC50 was 0.1 to 1 µM on JAK3, 1 to 10 µM on JAK2, less than 0.1 µM on JAK1 and less than 0.1 µM on TYK2. On JAK1, the “Selectivity ratio over JAK2, JAK1” value is recorded as “JAK1 = 56”.
Regarding `Cc1cnc(Nc2cnn(CC(F)F)c2)nc1NC[C@@H]1C[C@H](F)CN1C(=O)CCC#N` [Example 122, 4-((2S,4S)-2-(((2-((1-(2,2-difluoroethyl)-1H-pyrazol-4-yl)amino)-5-methylpyrimidin-4-yl)amino)methyl)-4-fluoropyrrolidin-1-yl)-4-oxobutanenitrile], the IC50 at JAK3 was 1 to 10 µM; on JAK2, 1 to 10 µM; on JAK1, less than 0.1 µM; at TYK2, 0.1 to 1 µM. The “Selectivity ratio over JAK2, JAK1” value at JAK1 is recorded as “JAK1 = 194”.
For the compound `Cc1cnc(Nc2cnn(CC(F)F)c2)nc1NC[C@@H]1CCCN1CCS(C)(=O)=O` [Example 123, (S)—N^2-(1-(2,2-difluoroethyl)-1H-pyrazol-4-yl)-5-methyl-N^4-((1-(2-(methylsulfonyl)ethyl)pyrrolidin-2-yl)methyl)pyrimidine-2,4-diamine], the IC50 on JAK3 was 0.1 to 1 µM; on JAK2 it was 1 to 10 µM; on JAK1, less than 0.1 µM; on TYK2, less than 0.1 µM. Also, the “Selectivity ratio over JAK2, JAK1” value at JAK1 is recorded as “JAK1 = 182”.
In the case of `Cc1cnc(Nc2cnn(CC(F)F)c2)nc1NC[C@@H]1CCCN1C(=O)CC#N` [Example 124, (S)-3-(2-(((2-((1-(2,2-difluoroethyl)-1H-pyrazol-4-yl)amino)-5-methylpyrimidin-4-yl)amino)methyl)pyrrolidin-1-yl)-3-oxopropanenitrile], the IC50 on JAK3 is 0.1 to 1 µM; on JAK2, 1 to 10 µM; at JAK1 it was less than 0.1 µM; on TYK2 it was less than 0.1 µM. In addition, the “Selectivity ratio over JAK2, JAK1” value at JAK1 is given as “JAK1 = 101”.
Turning to `Cc1cnc(Nc2cnn(CC(F)F)c2)nc1NC[C@@H]1CCCN1C(=O)CCC#N` [Example 125, (S)-4-(2-(((2-((1-(2,2-difluoroethyl)-1H-pyrazol-4-yl)amino)-5-methylpyrimidin-4-yl)amino)methyl)pyrrolidin-1-yl)-4-oxobutanenitrile], the IC50 is 0.1 to 1 µM on JAK3, 1 to 10 µM on JAK2, less than 0.1 µM at JAK1 and less than 0.1 µM on TYK2. The “Selectivity ratio over JAK2, JAK1” value on JAK1 is “JAK1 = 197”.
For the compound `Cn1cc(Nc2ncc(Cl)c(NC[C@H]3CCCN3CCNS(C)(=O)=O)n2)cn1` [Example 126, (R)—N-(2-(2-(((5-chloro-2-((1-methyl-1H-pyrazol-4-yl)amino)pyrimidin-4-yl)amino)methyl)pyrrolidin-1-yl)ethyl)methanesulfonamide], on JAK3 (JAK3 over JAK2), the “Selectivity ratio over JAK2, JAK3” value is given as “JAK3 = 46”. For the same compound, the IC50 is 0.1 to 1 µM at JAK3, 0.1 to 1 µM at JAK2, less than 0.1 µM at JAK1 and less than 0.1 µM at TYK2.
For `Cc1cnc(Nc2cnn(CC(F)F)c2)nc1NC[C@H]1CCN(CCS(C)(=O)=O)C1` [Example 127, (R)—N^2-(1-(2,2-difluoroethyl)-1H-pyrazol-4-yl)-5-methyl-N^4-((1-(2-(methylsulfonyl)ethyl)pyrrolidin-3-yl)methyl)pyrimidine-2,4-diamine], the IC50 at JAK3 is 0.1 to 1 µM; at JAK2 it was 1 to 10 µM; on JAK1 it was less than 0.1 µM; at TYK2 it was 0.1 to 1 µM. The “Selectivity ratio over JAK2, JAK1” value on JAK1 is reported as “JAK1 = 83”.
For the compound `Cc1cnc(Nc2cnn(CC(F)F)c2)nc1NC[C@H]1CCN(CCC#N)C1` [Example 128, (R)-3-(3-(((2-((1-(2,2-difluoroethyl)-1H-pyrazol-4-yl)amino)-5-methylpyrimidin-4-yl)amino)methyl)pyrrolidin-1-yl)propanenitrile], the IC50 on JAK3 was 0.1 to 1 µM; on JAK2 it was 1 to 10 µM; at JAK1 it was less than 0.1 µM; on TYK2, 0.1 to 1 µM. Further, on JAK1, the “Selectivity ratio over JAK2, JAK1” value is “JAK1 = 77”.
